In PubChem BioAssay (NCI):
Where “and” joins values, the source holds several entries; their conditions need not be identical. Identical values can stand only once.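 Step 1: Grow cells in 96-well plates. Step 2: Expose to compound for 48 hours at 5 concentrations. Step 3: Interpolate endpoints linearly; if unreached, use highest concentration. GI50 = concentration required for 50% inhibition of growth. Definition used: TGI = concentration required for complete inhibition of growth.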

How the values were obtained:
Experiment in all cases: NCI tumour cell line growth inhibition, 48 h
T-47D breast = system: T-47D breast
SF-539 CNS = system: SF-539 CNS
MALME-3M melanoma = system: MALME-3M melanoma
MCF7 breast = system: MCF7 breast
A498 renal = system: A498 renal
NCI-H460 lung = system: NCI-H460 lung
BT-549 breast = system: BT-549 breast
NCI-H522 lung = system: NCI-H522 lung
UACC-257 melanoma = system: UACC-257 melanoma
SNB-19 CNS = system: SNB-19 CNS

Compound	GI50 (T-47D breast)	TGI (T-47D breast)	GI50 (SF-539 CNS)	TGI (SF-539 CNS)	GI50 (MALME-3M melanoma)	TGI (MALME-3M melanoma)	GI50 (MCF7 breast)	TGI (MCF7 breast)	GI50 (A498 renal)	TGI (A498 renal)	GI50 (NCI-H460 lung)	TGI (NCI-H460 lung)	GI50 (BT-549 breast)	TGI (BT-549 breast)	GI50 (NCI-H522 lung)	TGI (NCI-H522 lung)	GI50 (UACC-257 melanoma)	TGI (UACC-257 melanoma)	GI50 (SNB-19 CNS)	TGI (SNB-19 CNS)
c1ccc(-c2nc(-c3ccccn3)nc(-c3ccccn3)n2)nc1	7.85 µM	> 100 µM	40.3 µM	> 100 µM	35.3 µM	> 100 µM	29.6 µM	> 100 µM	86.9 µM	> 100 µM	12.1 µM	> 100 µM	44.6 µM	> 100 µM	21.6 µM	81.8 µM	39.9 µM	> 100 µM	> 100 µM	> 100 µM
O=C(O)c1nc(NCc2nc3cc(Cl)ccc3o2)n[nH]1	> 100 µM	> 100 µM	> 100 µM	> 100 µM	> 100 µM	> 100 µM	> 100 µM	> 100 µM	> 100 µM	> 100 µM	> 100 µM	> 100 µM	> 100 µM	> 100 µM	> 100 µM	> 100 µM	> 100 µM	> 100 µM	> 100 µM	> 100 µM
CN(C)c1cc2ccccc2oc1=O	–	> 100 µM	–	> 100 µM	–	> 100 µM	–	> 100 µM	–	> 100 µM	–	> 100 µM	–	> 100 µM	–	> 100 µM	–	> 100 µM	–	> 100 µM
CC(C)=CCN1c2ccccc2NC(=O)CC1C (configuration not stated)	–	> 100 µM	–	> 100 µM	–	> 100 µM	–	> 100 µM	–	> 100 µM	–	> 100 µM	–	55 µM	–	> 100 µM	–	> 100 µM	–	> 100 µM
O=S(=O)(Nc1ccc(Br)cc1)c1ccc(-c2cnc(C3CC3)o2)cc1	2.84 µM	16.9 µM	1.86 µM	5.91 µM	1.66 µM	17.8 µM	0.651 µM	13.9 µM	0.31 µM	2.63 µM	2.2 µM	10.2 µM	3.37 µM	19.4 µM	0.855 µM	12.9 µM	10.5 µM	27.5 µM	3.98 µM	18.3 µM
CCN1C(=O)N(CC)C2C1NN=c1s/c(=C\c3ccc(Cl)cc3Cl)c(=O)n12 (configuration not stated)	15.7 µM	99.3 µM	0.0241 µM	0.0698 µM	0.0777 µM	> 75 µM	0.0322 µM	> 43.4 µM	0.0194 µM	0.0667 µM	0.0347 µM	15.8 µM	0.0302 µM	2.48 µM	0.0216 µM	0.219 µM	1.05 µM	> 88.4 µM	0.0503 µM	> 100 µM
COc1ccc2c(c1)C(=O)/C(=C/c1cccc(OCC(=O)c3ccccc3)c1)CC2	7.05 µM	> 100 µM	64.7 µM	> 100 µM	28.5 µM	> 100 µM	4.53 µM	> 100 µM	17.3 µM	80.8 µM	28.1 µM	> 100 µM	27.1 µM	> 100 µM	8.84 µM	> 100 µM	8.56 µM	> 100 µM	39.6 µM	> 100 µM
Cc1ccc(S(=O)(=O)SC/C=C\CSS(=O)(=O)c2ccc(C)cc2)cc1	–	> 100 µM	7 µM and 17.2 µM	43.6 µM and 33.3 µM	–	> 94.9 µM and 43.8 µM	–	> 77.2 µM	–	> 100 µM	–	> 94 µM and 99.4 µM	–	25.4 µM	3.79 µM and 17.1 µM	15.6 µM and 30.8 µM	42.3 µM and 20.8 µM	> 56.2 µM and 45.1 µM	–	> 89.3 µM and 77.7 µM
Cc1c2cnccc2c(C)c2c1c1cc(C#N)ccc1n2C	0.303 µM	–	0.254 µM	1.14 µM	0.195 µM	0.548 µM	0.262 µM	1.12 µM	0.11 µM	0.285 µM	0.124 µM	0.427 µM	0.406 µM	1.97 µM	0.167 µM	0.817 µM	0.207 µM	0.788 µM	0.181 µM	1.94 µM
CC(=O)c1c(C(F)(F)F)n([O-])c2ccccc2[n+]1=O	0.748 µM	4.02 µM	2 µM	5.38 µM	0.652 µM	3.06 µM	0.873 µM	4.08 µM	1.56 µM	4.48 µM	0.857 µM	10.8 µM	2.48 µM	9.06 µM	2.46 µM	> 100 µM	2.77 µM	13.6 µM	4.77 µM	18.5 µM
O=C(c1ccc2ccccc2c1)c1c(C(F)(F)F)n([O-])c2ccc(C(F)(F)F)cc2[n+]1=O	0.755 µM	2.31 µM	1.56 µM	2.97 µM	1.2 µM	2.71 µM	0.392 µM	1.56 µM	0.757 µM	1.97 µM	1.8 µM	3.69 µM	0.278 µM	0.751 µM	0.505 µM	1.09 µM	1.52 µM	3.12 µM	1.76 µM	3.2 µM
CCSC1=NC2C(N(CC)C(=O)N2CC)N1/N=C/C=C/c1ccccc1[N+](=O)[O-] (configuration not stated)	2.59 µM	> 82.1 µM	0.0804 µM	0.736 µM	0.135 µM	> 100 µM	0.0415 µM	> 100 µM	0.0283 µM	0.209 µM	0.228 µM	12.2 µM	0.284 µM	4.23 µM	0.0395 µM	46.2 µM	23.8 µM	> 100 µM	0.372 µM	> 100 µM
O=C1/C(=C/c2ccc([N+](=O)[O-])cc2)CN(C(=O)CCN2CCC(=NO)CC2)C/C1=C\c1ccc([N+](=O)[O-])cc1	1.84 µM	9.27 µM	0.969 µM	2.91 µM	2.04 µM	6.9 µM	0.431 µM	2.87 µM	1.75 µM	3.95 µM	1.15 µM	3.95 µM	1.71 µM	4.32 µM	0.86 µM	3.28 µM	2.43 µM	7.97 µM	1.08 µM	5.13 µM
